Data taken from publication PMC11923102 (Nature Communications, 2025).
Changes are numbered by the printed parent chain. Where two headings read alike, the source gives them in different places.

How the values were obtained:
Type in all cases: cell-based
TRPV3 (hTRPV3) [1] = biological target: T1, TRPV3 (hTRPV3) (Homo sapiens, UniProt Q8NET8, Q695L); experiment: whole-cell patch clamp
T1 sequence (Q8NET8 1-790 Q695L): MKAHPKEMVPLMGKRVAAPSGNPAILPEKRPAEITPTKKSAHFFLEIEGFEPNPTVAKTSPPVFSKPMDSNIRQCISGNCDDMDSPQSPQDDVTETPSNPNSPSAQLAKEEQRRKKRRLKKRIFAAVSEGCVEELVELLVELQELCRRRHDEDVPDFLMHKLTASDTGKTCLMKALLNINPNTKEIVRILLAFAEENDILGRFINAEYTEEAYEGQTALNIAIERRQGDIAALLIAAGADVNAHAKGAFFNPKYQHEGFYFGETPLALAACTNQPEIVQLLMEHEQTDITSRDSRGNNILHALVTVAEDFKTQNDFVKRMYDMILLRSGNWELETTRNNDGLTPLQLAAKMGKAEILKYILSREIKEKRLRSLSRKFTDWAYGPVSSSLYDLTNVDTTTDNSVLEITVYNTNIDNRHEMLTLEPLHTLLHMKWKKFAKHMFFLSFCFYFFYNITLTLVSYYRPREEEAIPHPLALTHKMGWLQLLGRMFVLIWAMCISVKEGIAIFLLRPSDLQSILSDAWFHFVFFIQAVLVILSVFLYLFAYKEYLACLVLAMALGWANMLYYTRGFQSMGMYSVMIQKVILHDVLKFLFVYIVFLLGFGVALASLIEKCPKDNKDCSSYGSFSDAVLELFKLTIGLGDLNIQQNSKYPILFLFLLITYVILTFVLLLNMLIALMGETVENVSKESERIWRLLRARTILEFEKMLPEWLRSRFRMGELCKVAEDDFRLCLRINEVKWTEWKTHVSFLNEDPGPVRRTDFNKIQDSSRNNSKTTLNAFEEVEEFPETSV

TRPV3 (hTRPV3) [2] = biological target: T2, TRPV3 (hTRPV3) (Homo sapiens, UniProt Q8NET8); experiment: cryo-EM structure
T2 sequence (Q8NET8 1-790): T1 sequence (Q8NET8 1-790 Q695L) with L695Q

TRPV3 (hTRPV3) [3] = biological target: T2, TRPV3 (hTRPV3); experiment: cryo-EM structure; remark: listed apart in the source
mTRPV3 = biological target: T3, mTRPV3 (Mus musculus, UniProt Q8K424); experiment: whole-cell patch clamp, inhibition of citronellal-evoked currents
T3 sequence (Q8K424 1-791): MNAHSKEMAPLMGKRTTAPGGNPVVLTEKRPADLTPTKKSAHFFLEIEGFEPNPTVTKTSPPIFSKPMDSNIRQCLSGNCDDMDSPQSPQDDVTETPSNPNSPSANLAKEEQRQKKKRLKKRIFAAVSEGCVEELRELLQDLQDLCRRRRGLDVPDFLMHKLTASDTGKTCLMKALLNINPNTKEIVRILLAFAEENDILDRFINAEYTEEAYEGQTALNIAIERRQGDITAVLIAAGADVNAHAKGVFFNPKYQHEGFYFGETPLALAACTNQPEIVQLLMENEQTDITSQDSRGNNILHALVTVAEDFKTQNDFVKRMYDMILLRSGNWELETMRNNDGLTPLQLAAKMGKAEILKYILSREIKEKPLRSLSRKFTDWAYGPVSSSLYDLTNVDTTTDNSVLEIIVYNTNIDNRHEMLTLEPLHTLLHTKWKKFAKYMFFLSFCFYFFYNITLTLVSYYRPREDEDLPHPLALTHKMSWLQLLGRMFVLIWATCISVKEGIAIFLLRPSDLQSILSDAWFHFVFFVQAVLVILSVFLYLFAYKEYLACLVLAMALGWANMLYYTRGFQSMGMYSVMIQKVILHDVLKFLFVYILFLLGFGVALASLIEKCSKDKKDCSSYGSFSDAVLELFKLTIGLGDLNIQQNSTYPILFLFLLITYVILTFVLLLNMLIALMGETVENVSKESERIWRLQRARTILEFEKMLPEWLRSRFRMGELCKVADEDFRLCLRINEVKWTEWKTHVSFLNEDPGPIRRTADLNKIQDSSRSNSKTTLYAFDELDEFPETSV

Structure (SMILES): C=CC(C)(O)CCC=C(C)C (stereo not shown) [linalool]
- EC50 (TRPV3 (hTRPV3) [1]): 0.42 ± 0.02 mM
- EC50 (TRPV3 (hTRPV3) [2]): 6.19 ± 0.6 mM

Structure (SMILES): CC(C)=CCC/C(C)=C/C=O [citral]
- EC50 (TRPV3 (hTRPV3) [3]): 6.61 ± 0.93 mM

Structure (SMILES): CCCCOc1ccc(C(=O)CCN2CCCCC2)cc1 [dyclonine]
- IC50 (mTRPV3): 0.00073 ± 5e-05 mM
